Measurements taken from patent US20250195530A1, “POLQ INHIBITORS” (ASTRAZENECA AB, priority 2022, published 2025).

Columns and labels:
DLD-1 cells = test: Inhibition of proliferation, DLD-1 BRCA2 wt control (Cell Titre Glo 3D); assay type: cell-based; settings: mean; for POLQ PD Prolif Lumin DLD1 mean pIC50: DLD1 BRCA2 wt; for IC50: Homo sapiens, DLD-1, DLD1 BRCA2 wt, read-out: POLQ PD Prolif Lumin DLD1 mean pIC50 (converted)
Summary of the method: (§1)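 Proliferation of HR-deficient DLD-1 BRCA2−/− versus isogenic wild-type DLD-1 was measured by ATP luminescence (CellTiter-Glo 3D). Compound exposure lasted 12 or 7 days, respectively, with a fresh dose on day 6. IC50 was the concentration halving maximal signal.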

DLD-1 BRCA2−/− cells = test: Homologous recombination synthetic lethal inhibition of proliferation, DLD-1 BRCA2-/- (Cell Titre Glo 3D); assay type: cell-based; settings: mean; for POLQ PD Prolif Lumin BRCA2 −/− mean pIC50: DLD-1 BRCA2 −/−; for IC50: Homo sapiens, DLD-1, DLD-1 BRCA2 −/−, read-out: POLQ PD Prolif Lumin BRCA2 −/− mean pIC50 (converted)
Summary of the method: as §1

SMILES | POLQ PD Prolif Lumin DLD1 mean pIC50 (DLD-1 cells) | POLQ PD Prolif Lumin BRCA2 −/− mean pIC50 (DLD-1 BRCA2−/− cells) | IC50 (DLD-1 cells) | IC50 (DLD-1 BRCA2−/− cells)
COc1ccc(Cl)cc1Cn1c(-c2ccc(O[C@H]3CC[C@@H](C(=O)O)CC3)cc2Cl)nc2c(OC3(C)CC3)ncnc21 [Example U40, (1s,4s)-4-(3-chloro-4-(9-(5-chloro-2-methoxybenzyl)-6-(1-methylcyclopropoxy)-9H-purin-8-yl)phenoxy)cyclohexane-1-carboxylic acid] | <5.1 | 7 |  | 
COc1ccc(Cl)cc1Cn1c(-c2ccc(O[C@H]3CC[C@H](C(=O)O)CC3)cc2Cl)nc2c(OC3(C)CC3)ncnc21 [Example U43, (1r,4r)-4-(3-chloro-4-(9-(5-chloro-2-methoxybenzyl)-6-(1-methylcyclopropoxy)-9H-purin-8-yl)phenoxy)cyclohexane-1-carboxylic acid] | <5.0 | 7.2 |  | 
COc1ccc(Cl)cc1Cn1c(-c2ccc(OCCCC(C)(C)C(=O)O)cc2Cl)nc2c(OC3(C)CC3)ncnc21 [Example U47, 5-(3-chloro-4-(9-(5-chloro-2-methoxybenzyl)-6-(1-methylcyclopropoxy)-9H-purin-8-yl)phenoxy)-2,2-dimethylpentanoic acid] |  |  | 6310 nM | 31.6 nM
COc1ccc(Cl)cc1Cn1c(-c2ccc(OCCOCC(=O)O)cc2Cl)nc2c(OC3(C)CC3)ncnc21 [Example U48, 2-(2-(3-chloro-4-(9-(5-chloro-2-methoxybenzyl)-6-(1-methylcyclopropoxy)-9H-purin-8-yl)phenoxy)ethoxy)acetic acid] |  |  | > 10000 nM | 631 nM
COc1ccc(Cl)cc1Cn1c(-c2cccc(O[C@H]3CC[C@@H](C(=O)O)CC3)c2Cl)nc2c(OC3(C)CC3)ncnc21 [Example U50, (1s,4s)-4-(2-chloro-3-(9-(5-chloro-2-methoxybenzyl)-6-(1-methylcyclopropoxy)-9H-purin-8-yl)phenoxy)cyclohexane-1-carboxylic acid] | <5.0 | 7.6 |  | 
COc1ccc(Cl)cc1Cn1c(-c2cccc(O[C@H]3C[C@H](C(=O)O)C3)c2Cl)nc2c(OC3(C)CC3)ncnc21 [Example U51, (1r,3r)-3-(2-chloro-3-(9-(5-chloro-2-methoxybenzyl)-6-(1-methylcyclopropoxy)-9H-purin-8-yl)phenoxy)cyclobutane-1-carboxylic acid] | <5.0 | 7.2 |  | 
COc1ccc(Cl)cc1Cn1c(-c2cccc(OCCOCC(=O)O)c2Cl)nc2c(OC3(C)CC3)ncnc21 [Example U52, 2-(2-(2-chloro-3-(9-(5-chloro-2-methoxybenzyl)-6-(1-methylcyclopropoxy)-9H-purin-8-yl)phenoxy)ethoxy)acetic acid] |  |  | > 10000 nM | 50.1 nM
COc1ccc(Cl)cc1Cn1c(-c2ccc(OCCOC(C)(C)C(=O)O)cc2Cl)nc2c(OC3(C)CC3)ncnc21 [Example U54, 2-(2-(3-chloro-4-(9-(5-chloro-2-methoxybenzyl)-6-(1-methylcyclopropoxy)-9H-purin-8-yl)phenoxy)ethoxy)-2-methylpropanoic acid] |  |  | > 10000 nM | 126 nM
COc1ccc(Cl)cc1Cn1c(-c2cccc(CCCC(=O)O)c2Cl)nc2c(OC3(C)CC3)ncnc21 [Example U62, 4-(2-chloro-3-(9-(5-chloro-2-methoxybenzyl)-6-(1-methylcyclopropoxy)-9H-purin-8-yl)phenyl)butanoic acid] |  |  | > 10000 nM | 50.1 nM
COc1ccc(Cl)cc1Cn1c(-c2cccc(CCC(=O)O)c2Cl)nc2c(OC3(C)CC3)ncnc21 [Example U64, 3-(2-chloro-3-(9-(5-chloro-2-methoxybenzyl)-6-(1-methylcyclopropoxy)-9H-purin-8-yl)phenyl)propanoic acid] |  |  | > 10000 nM | 100 nM
CC1(Oc2ncnc3c2nc(-c2ccc(F)c(OCCC(=O)O)c2Cl)n3Cc2cccc(Cl)c2)CC1 [Example U65, 3-(2-chloro-3-(9-(3-chlorobenzyl)-6-(1-methylcyclopropoxy)-9H-purin-8-yl)-6-fluorophenoxy)propanoic acid] |  |  | > 10000 nM | 251 nM
COc1ccc(F)cc1Cn1c(-c2ccc(OCC[C@@H](C)C(=O)O)cc2Cl)nc2c(OC3(C)CC3)ncnc21 [Example U67, (R)-4-(3-chloro-4-(9-(5-fluoro-2-methoxybenzyl)-6-(1-methylcyclopropoxy)-9H-purin-8-yl)phenoxy)-2-methylbutanoic acid] |  |  | > 10000 nM | 50.1 nM
COc1ccc(F)cc1Cn1c(-c2ccc(OCC[C@H](C)C(=O)O)cc2Cl)nc2c(OC3(C)CC3)ncnc21 [Example U68, (S)-4-(3-chloro-4-(9-(5-fluoro-2-methoxybenzyl)-6-(1-methylcyclopropoxy)-9H-purin-8-yl)phenoxy)-2-methylbutanoic acid] |  |  | > 10000 nM | 39.8 nM
COc1ccc(F)cc1Cn1c(-c2cccc(O[C@H]3CC[C@H](C(=O)O)CC3)c2Cl)nc2c(OC3(C)CC3)ncnc21 [Example U69, (1r,4r)-4-(2-chloro-3-(9-(5-fluoro-2-methoxybenzyl)-6-(1-methylcyclopropoxy)-9H-purin-8-yl)phenoxy)cyclohexane-1-carboxylic acid] | <5.0 | 7.4 |  | 
COc1ccc(Cl)cc1Cn1c(-c2cccc(OCC[C@H](C)C(=O)O)c2Cl)nc2c(OC3(C)CC3)ncnc21 [Example U73, (S)-4-(2-chloro-3-(9-(5-chloro-2-methoxybenzyl)-6-(1-methylcyclopropoxy)-9H-purin-8-yl)phenoxy)-2-methylbutanoic acid] |  |  | > 10000 nM | 2 nM
COc1ccc(F)cc1Cn1c(-c2cccc(O[C@H]3C[C@@H](C(=O)O)C3)c2Cl)nc2c(OC3(C)CC3)ncnc21 [Example U74, (1s,3s)-3-(2-chloro-3-(9-(5-fluoro-2-methoxybenzyl)-6-(1-methylcyclopropoxy)-9H-purin-8-yl)phenoxy)cyclobutane-1-carboxylic acid] | <5.0 | 7.2 |  | 
COc1ccc(Cl)cc1Cn1c(-c2cccc(OCC[C@@H](C)C(=O)O)c2Cl)nc2c(OC3(C)CC3)ncnc21 [Example U75, (R)-4-(2-chloro-3-(9-(5-chloro-2-methoxybenzyl)-6-(1-methylcyclopropoxy)-9H-purin-8-yl)phenoxy)-2-methylbutanoic acid] |  |  | > 10000 nM | 2 nM
COc1ccc(C(F)(F)F)cc1Cn1c(-c2ccc(OCC[C@H](C)C(=O)O)cc2Cl)nc2c(OC3(C)CC3)ncnc21 [Example U76, (S)-4-(3-chloro-4-(9-(2-methoxy-5-(trifluoromethyl)benzyl)-6-(1-methylcyclopropoxy)-9H-purin-8-yl)phenoxy)-2-methylbutanoic acid] |  |  | > 10000 nM | 200 nM
C[C@H](CCOc1ccc(-c2nc3c(OC4(C)CC4)ncnc3n2Cc2cc(Cl)ccc2C#N)c(Cl)c1)C(=O)O [Example U81, (R)-4-(3-chloro-4-(9-(5-chloro-2-cyanobenzyl)-6-(1-methylcyclopropoxy)-9H-purin-8-yl)phenoxy)-2-methylbutanoic acid] |  |  | > 10000 nM | 20 nM
C[C@@H](CCOc1ccc(-c2nc3c(OC4(C)CC4)ncnc3n2Cc2cc(Cl)ccc2C#N)c(Cl)c1)C(=O)O [Example U82, (S)-4-(3-chloro-4-(9-(5-chloro-2-cyanobenzyl)-6-(1-methylcyclopropoxy)-9H-purin-8-yl)phenoxy)-2-methylbutanoic acid] |  |  | > 10000 nM | 50.1 nM
COc1ccc(F)cc1Cn1c(-c2cccc(OCCC(=O)O)c2Cl)nc2c(OC3(C)CC3)ncnc21 [Example U83, 3-(2-chloro-3-(9-(5-fluoro-2-methoxybenzyl)-6-(1-methylcyclopropoxy)-9H-purin-8-yl)phenoxy)propanoic acid] |  |  | > 10000 nM | 50.1 nM
CC1(Oc2ncnc3c2nc(-c2cccc(O[C@H]4C[C@@H](C(=O)O)C4)c2Cl)n3Cc2cc(Cl)ccc2C#N)CC1 [Example U84, (1s,3s)-3-(2-chloro-3-(9-(5-chloro-2-cyanobenzyl)-6-(1-methylcyclopropoxy)-9H-purin-8-yl)phenoxy)cyclobutane-1-carboxylic acid] | <5.0 | 7.3 |  | 
C[C@@H](CCOc1ccc(-c2nc3c(OC4(C)CC4)ncnc3n2Cc2cccc(Cl)c2)c(Cl)c1)C(=O)NCC(=O)O [Example U86, (S)-(4-(3-chloro-4-(9-(3-chlorobenzyl)-6-(1-methylcyclopropoxy)-9H-purin-8-yl)phenoxy)-2-methylbutanoyl)glycine] |  |  | > 10000 nM | 2510 nM
C[C@@H](CCOc1cccc(-c2nc3c(OC4(C)CC4)ncnc3n2Cc2cc(Cl)ccc2C#N)c1Cl)C(=O)O [Example U87, (S)-4-(2-chloro-3-(9-(5-chloro-2-cyanobenzyl)-6-(1-methylcyclopropoxy)-9H-purin-8-yl)phenoxy)-2-methylbutanoic acid] |  |  | > 10000 nM | 15.8 nM
COc1ccc(C)cc1Cn1c(-c2cccc(OCCC(=O)O)c2Cl)nc2c(OC3(C)CC3)ncnc21 [Example U89, 3-(2-chloro-3-(9-(2-methoxy-5-methylbenzyl)-6-(1-methylcyclopropoxy)-9H-purin-8-yl)phenoxy)propanoic acid] |  |  | 7940 nM | 15.8 nM
COc1ccc(Cl)cc1Cn1c(-c2cccc(OCCCOC(C)(C)C(=O)O)c2Cl)nc2c(OC3(C)CC3)ncnc21 [Example U90, 2-(3-(2-chloro-3-(9-(5-chloro-2-methoxybenzyl)-6-(1-methylcyclopropoxy)-9H-purin-8-yl)phenoxy)propoxy)-2-methylpropanoic acid] |  |  | > 10000 nM | 5.01 nM
